# Measurements taken from patent publication US9464052B2, “Potassium ion channel modulators and uses thereof” (Ramot at Tel-Aviv University Ltd., priority 2008, dated 2016).
# Molecular target: KCNQ2/KCNQ3 potassium channel (Homo sapiens, UniProt O43525+O43526)
# Experiment: KCNQ2/KCNQ3 potassium channel current, automated parallel patch clamp (PatchXpress 7000A)
# Type: cell-based
# Settings: channel expressed in mammalian cells, ambient temperature
# Procedure: The objective of this study was to examine the in vitro effects of the Example compounds on the KCNQ2/KCNQ3 potassium channel current expressed in mammalian cells using the PatchXpress 7000A (Molecular Devices), an automatic parallel patch clamp system. The test compounds were evaluated at 30 μM with this concentration tested in 3 cells (n=3). The duration of exposure to the test compound concentration was 5 minutes. […] The results for a positive control, flupirtine (Table 2) confirm the sensitivity of the test system to detect KCNQ2/KCNQ3 current enhancement.
# All experiments were performed at ambient temperature. Each cell acted as its own control.
# A 30 μM concentration of test compound was applied via disposable polyethylene micropipette tips to naïve cells (n=2, where n=the number cells). Each solution exchange, performed in quadruplicate, consisted of aspiration and replacement of 45 of the total 50 μL volume of the extracellular well of the Sealchip16.
# Vehicle was applied to naïve cells (n 2, where n=the number cells), for a 5 minute exposure interval. Each solution exchange, performed in quadruplicate, consisted of aspiration and replacement of 45 μL of the total 50 μL volume of the extracellular well of the Sealchip16. After vehicle application, the positive control was applied in the same manner, to verify sensitivity of the assay.
# In preparation for a recording session, intracellular solution was loaded into the intracellular compartments of the Sealchip16 planar electrode. Cell suspension was pipetted into the extracellular compartments of the Sealchip16 planar electrode. After establishment of a whole-cell configuration, membrane currents were recorded using dual-channel patch clamp amplifiers in the PatchXpress®system. Before digitization, the current records were low-pass filtered at one-fifth of the sampling frequency.
# Data acquisition and analyses were performed using the suite of pCLAMP programs (Axon Instruments, Union City, Calif.). Steady state was defined by the limiting constant rate of change with time (linear time dependence). The steady state before and after test article application was used to calculate the percentage of current inhibited at each concentration. Results obtained from different cell were averaged and presented as Mean±S.D.—see Tables 1 and 2.
# [1] = 30 μM test compound, 5 minutes exposure
Mean % Enhancement of KCNQ2/KCNQ3 [1] [%],"Mean % Enhancement of KCNQ2/KCNQ3 (10 μM positive control, applied after vehicle) [%]",Structure (SMILES)
168.2,,"O=C(Cc1cccc(Nc2c(Cl)cc(Cl)cc2Cl)c1)NCCO [Example 1, N-(2-Hydroxy-ethyl)-2-[3-(2,4,6-trichloro-phenylamino)-phenyl]-acetamide]"
162.5,,"O=C(O)CNC(=O)Cc1cc(Nc2cc(Cl)cc(Cl)c2)ccc1F [Example 2, {2-[5-(3,5-Dichloro-phenylamino)-2-fluoro-phenyl]-acetylamino}-acetic acid]"
115.8,,"O=C(Cc1ccc(Nc2c(Cl)cc(C(F)(F)F)cc2Cl)cc1)NCCO [Example 3, 2-[4-(2,6-Dichloro-4-trifluoromethyl-phenylamino)-phenyl]-N-(2-hydroxy-ethyl)-acetamide]"
181.9,,"O=C(O)CNC(=O)Cc1ccc(Nc2cc(Cl)cc(Cl)c2)cc1 [Example 4, {2-[4-(3,5-Dichlorophenylamino)-phenyl]-acetylamino}-acetic acid]"
,201.0,"CCOC(=O)Nc1ccc(NCc2ccc(F)cc2)nc1N [Flupirtine, reference compound]"
